The values that follow come from PMC8765048 (JCI Insight, 2022).

Assay in all cases: microbe, parasite or virus in culture
What all share (format): cell-based

The test system of assay [1] is SARS-CoV-2 variants. The conditions noted are these: Severe acute respiratory syndrome coronavirus 2, Vero C1008.
Assay [2] concerns SARS-CoV-2 variants. The conditions noted are these: Severe acute respiratory syndrome coronavirus 2, Calu-3.
The test system of another assay is SARS-CoV-2. Particulars: Severe acute respiratory syndrome coronavirus 2; read-out: IC50 values against all viral variants and in all examined cell types.

As for `NC(=O)c1cn([C@@H]2O[C@H](CO)[C@@H](O)[C@H]2O)c2ncnc(N)c12` [Sangivamycin, sangivamycin], the IC50 in the assay with SARS-CoV-2 variants [1] was 42 ± 8.8 nM; in the assay on SARS-CoV-2 variants [2], 64.3 ± 4.7 nM; in the assay with SARS-CoV-2, 14 to 82 nM. In addition, the results for the IC90 in the assay with SARS-CoV-2 variants [1] and in the assay with SARS-CoV-2 variants [2] were 220 ± 42.1 nM and 255 ± 46.1 nM, respectively.

Regarding `CCC(CC)COC(=O)[C@H](C)N[P@](=O)(OC[C@H]1O[C@@](C#N)(c2ccc3c(N)ncnn23)[C@H](O)[C@@H]1O)Oc1ccccc1` [Remdesivir, remdesivir, reference compound], the IC50 with SARS-CoV-2 variants [1] came to 2100 ± 516 nM; with SARS-CoV-2 variants [2], 2290 ± 449 nM. Besides, the IC90 with SARS-CoV-2 variants [1] amounted to 4450 ± 829 nM; with SARS-CoV-2 variants [2] it was 7200 ± 1000 nM.

One may read the IC50 as the concentration that inhibits the measured activity by half. For orientation: IC90 means the concentration at which the effect reaches the 90% level. High values mean a need for much substance, low ones an effect from little substance.
